Measured values: US7057012B1, “PTH functional domain conjugate peptides, derivatives thereof and novel tethered ligand-receptor molecules” (The General Hospital Corporation, priority 1998, dated 2006)
Each block holds one substance with its values, some of them ahead of it.

Experiments:
the receptor = target: T1, the receptor (Homo sapiens, UniProt Q03431); settings: cited from earlier work
T1 sequence (Q03431 27-593): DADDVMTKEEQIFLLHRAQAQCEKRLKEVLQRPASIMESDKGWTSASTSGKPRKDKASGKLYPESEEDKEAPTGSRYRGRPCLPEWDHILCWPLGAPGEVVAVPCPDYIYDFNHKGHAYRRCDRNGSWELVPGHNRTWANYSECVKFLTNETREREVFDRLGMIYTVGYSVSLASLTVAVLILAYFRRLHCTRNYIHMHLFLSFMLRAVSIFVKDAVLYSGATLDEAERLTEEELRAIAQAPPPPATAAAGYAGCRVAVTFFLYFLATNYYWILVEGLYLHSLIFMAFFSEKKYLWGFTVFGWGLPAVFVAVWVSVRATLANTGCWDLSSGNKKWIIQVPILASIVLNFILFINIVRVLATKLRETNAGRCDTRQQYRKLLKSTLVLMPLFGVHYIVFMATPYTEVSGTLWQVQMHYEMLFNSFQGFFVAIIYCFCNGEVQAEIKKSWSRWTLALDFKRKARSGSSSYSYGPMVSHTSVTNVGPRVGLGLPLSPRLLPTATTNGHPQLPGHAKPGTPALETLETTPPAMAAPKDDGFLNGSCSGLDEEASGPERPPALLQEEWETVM

AC = settings: cited from earlier work
rat PTH-1 receptor = target: T2, rat PTH-1 receptor (Rattus norvegicus, UniProt P25961); settings: CHO cells expressing the cloned rat PTH-1 receptor; cited from earlier work
T2 construct: host or cells: CHO cells
T2 sequence (P25961 27-591): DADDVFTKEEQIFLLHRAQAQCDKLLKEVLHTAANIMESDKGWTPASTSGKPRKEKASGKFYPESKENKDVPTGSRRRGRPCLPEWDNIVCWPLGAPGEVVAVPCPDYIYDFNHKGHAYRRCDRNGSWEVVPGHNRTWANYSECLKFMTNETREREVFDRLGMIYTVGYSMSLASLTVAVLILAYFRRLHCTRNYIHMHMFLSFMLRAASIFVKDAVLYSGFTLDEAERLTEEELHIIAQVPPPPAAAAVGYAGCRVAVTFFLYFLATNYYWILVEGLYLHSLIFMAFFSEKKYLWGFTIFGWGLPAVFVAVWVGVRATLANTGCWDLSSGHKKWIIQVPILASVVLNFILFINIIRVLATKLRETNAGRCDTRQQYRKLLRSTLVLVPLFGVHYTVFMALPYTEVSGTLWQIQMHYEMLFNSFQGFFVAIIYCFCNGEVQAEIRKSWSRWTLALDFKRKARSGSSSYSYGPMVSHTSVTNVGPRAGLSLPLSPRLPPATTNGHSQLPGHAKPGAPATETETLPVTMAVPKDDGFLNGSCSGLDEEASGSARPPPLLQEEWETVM

hP1r-de1NT = target: T3, hP1r-de1NT (Homo sapiens, UniProt Q03431); assay: Q-PTH(1–34) cAMP dose-response, COS-7 cells expressing hP1R-delNT; type: cell-based
T3 construct: expressed in transfected cells; host or cells: COS-7 cells, transient, DEAE-dextran
T3 sequence (Q03431 with tags, fused parts or gaps): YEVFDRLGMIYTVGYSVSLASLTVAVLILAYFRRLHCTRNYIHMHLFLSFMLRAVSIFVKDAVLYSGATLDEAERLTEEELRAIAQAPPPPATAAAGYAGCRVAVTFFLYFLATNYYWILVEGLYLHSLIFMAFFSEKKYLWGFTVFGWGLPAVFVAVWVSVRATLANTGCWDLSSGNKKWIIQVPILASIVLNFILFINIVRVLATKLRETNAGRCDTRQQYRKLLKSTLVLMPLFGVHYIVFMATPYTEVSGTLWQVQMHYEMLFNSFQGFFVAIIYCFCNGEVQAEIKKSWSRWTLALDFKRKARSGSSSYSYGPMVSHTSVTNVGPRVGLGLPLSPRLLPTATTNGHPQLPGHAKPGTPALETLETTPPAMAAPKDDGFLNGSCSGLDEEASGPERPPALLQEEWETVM
Protocol: (§1) Cell Culture: COS-7 cells were cultured at 37° C. in T-75 flasks ([…] in Dulbecco's modified Eagle's medium (DMEM) supplemented with fetal bovine serum (10%), penicillin G (20 units/ml), streptomycin sulfate (20 μg/ml) and amphotericin B (0.05 μg/ml) in a humidified atmosphere containing 5% CO2. Cells were sub-cultured in 24-well plates and, when confluent, were treated with fresh media and shifted to 33° C. for 12 to 24 h prior to the assay (Bergwitz, C., et al., J. Biol. Chem. 272:28861–28868 (1997); Abell, A., et al., J. Biol. Chem. 271:4518–4527 (1996)).
(§2) PTH Receptor mutagenesis and COS-7 cell expression: The pcDNA-1-based plasmid encoding the intact HPTH-1 receptor (HK-WT in reference (Schipani, E., et al., Endocrinol. 132:2157–2165 (1993)) and herein called hP1R-WT) was used for studies in COS-7 cells. The truncated human PTH-1 receptor (hP1R-de1Nt) (FIG. 18) was constructed from the HK-WT plasmid by oligonucleotide-directed mutagenesis (Kunkel, T. A., Proc. Natl. Acad. Sci. USA 82:488–492 (1985)). […]
(§3) cAMP Stimulation: Stimulation of cells with peptide analogs was performed in 24-well plates. […] The cAMP content of the diluted lysate was determined by radioimmunoassay.

hP1R-Tether(1–9) = target: T4, hP1R-Tether(1–9) (Homo sapiens, UniProt Q03431); assay: Q-PTH(1–34) cAMP dose-response, COS-7 cells expressing hP1R-Tether(1–9); type: cell-based
T4 construct: expressed in transfected cells; host or cells: COS-7 cells, transient, DEAE-dextran
T4 sequence (Q03431 with tags, fused parts or gaps): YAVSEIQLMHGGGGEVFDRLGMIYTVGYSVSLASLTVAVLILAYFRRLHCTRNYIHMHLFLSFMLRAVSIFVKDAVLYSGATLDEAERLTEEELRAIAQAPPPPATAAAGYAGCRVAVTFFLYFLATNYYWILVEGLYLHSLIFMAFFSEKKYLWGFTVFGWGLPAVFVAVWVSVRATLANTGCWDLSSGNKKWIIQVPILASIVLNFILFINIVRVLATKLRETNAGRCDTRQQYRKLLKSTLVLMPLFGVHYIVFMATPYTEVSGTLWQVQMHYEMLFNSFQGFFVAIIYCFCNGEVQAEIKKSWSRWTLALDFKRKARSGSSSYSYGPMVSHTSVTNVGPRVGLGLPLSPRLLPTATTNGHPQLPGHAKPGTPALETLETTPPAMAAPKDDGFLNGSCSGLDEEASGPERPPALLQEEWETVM
Protocol: as §1, §2, §3

hP1R-[R^11]-Tether(1–11) = target: T5, hP1R-[R^11]-Tether(1–11) (Homo sapiens, UniProt Q03431); assay: Q-PTH(1–34) cAMP dose-response, COS-7 cells expressing hP1R-[R11]-Tether(1–11); type: cell-based
T5 construct: expressed in transfected cells; host or cells: COS-7 cells, transient, DEAE-dextran
T5 sequence (Q03431 with tags, fused parts or gaps): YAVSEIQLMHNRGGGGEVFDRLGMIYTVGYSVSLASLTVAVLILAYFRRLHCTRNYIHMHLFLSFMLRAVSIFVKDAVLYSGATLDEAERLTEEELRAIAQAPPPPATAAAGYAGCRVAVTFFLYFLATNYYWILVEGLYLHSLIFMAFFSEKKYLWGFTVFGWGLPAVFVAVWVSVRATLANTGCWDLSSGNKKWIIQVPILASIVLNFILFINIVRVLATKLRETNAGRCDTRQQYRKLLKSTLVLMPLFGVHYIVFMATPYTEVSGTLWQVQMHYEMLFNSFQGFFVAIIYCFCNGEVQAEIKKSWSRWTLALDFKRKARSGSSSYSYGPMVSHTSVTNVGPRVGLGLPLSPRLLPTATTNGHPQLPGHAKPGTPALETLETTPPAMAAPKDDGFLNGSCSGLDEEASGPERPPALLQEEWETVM
Protocol: as §1, §2, §3

hP1R-Tether constructs = assay: Q-PTH(1–34) cAMP stimulation of the hP1R-Tether constructs and alanine mutants in COS-7 cells; type: cell-based, human
Protocol: as §1, §2, §3

rat renal membranes = settings: cited from earlier work

Substance: PTH(15–34)
- binding to the receptor (the receptor): binds weakly
- activation of AC (AC): does not activate AC

Substance: PTHrP(1–16) (AVSEHQLLHDKGKSIQ; Parathyroid hormone-related protein; UniProt P12272 37-52, looked up, fragment) [short NH2-terminal PTHrP peptide investigated previously]
- activity in AC assays (rat PTH-1 receptor): inactive

- cAMP dose-response relative to the intact wildtype receptor (hP1r-de1NT): right-shifted response
- cAMP dose-response relative to the intact wildtype receptor (hP1R-Tether(1–9)): right-shifted response
- cAMP dose-response relative to the intact wildtype receptor (hP1R-[R^11]-Tether(1–11)): right-shifted response
Substance: [Ala^1,3,10,12,Arg^11, Tyr^34]hPTH(1–34)NH2 [Q-PTH(1–34)]
- maximum cAMP response (hP1r-de1NT): capable of producing a maximum cAMP response
- maximum cAMP response (hP1R-Tether(1–9)): capable of producing a maximum cAMP response
- maximum cAMP response (hP1R-[R^11]-Tether(1–11)): capable of producing a maximum cAMP response
- dose-response curves for the hP1R-Tether constructs relative to hP1R-de1NT (hP1R-Tether constructs): parallel and left-shifted
- cAMP response of the alanine mutants of hP1R-[R11]-Tether(1–11) to exogenous ligand (hP1R-Tether constructs; alanine scan mutants): responded well

Substance: bPTH(1–12) (AVSEIQFMHNLG; Parathyroid hormone; UniProt P01268 32-43, looked up, fragment) [short NH2-terminal PTH peptide investigated previously]
- activity in adenylyl cyclase assays (rat renal membranes): inactive
